Assay results reported in BindingDB's records for 0.1007/s00044-005-0126-y (University, Mississippi, 2005).

Columns and labels:
[1] = molecular target: T1, Cysteine proteinase falcipain 2a (Plasmodium falciparum, UniProt Q9NBD4); assay: In Vitro Inhibition Assay
T1 sequence (Q9NBD4 whole entry): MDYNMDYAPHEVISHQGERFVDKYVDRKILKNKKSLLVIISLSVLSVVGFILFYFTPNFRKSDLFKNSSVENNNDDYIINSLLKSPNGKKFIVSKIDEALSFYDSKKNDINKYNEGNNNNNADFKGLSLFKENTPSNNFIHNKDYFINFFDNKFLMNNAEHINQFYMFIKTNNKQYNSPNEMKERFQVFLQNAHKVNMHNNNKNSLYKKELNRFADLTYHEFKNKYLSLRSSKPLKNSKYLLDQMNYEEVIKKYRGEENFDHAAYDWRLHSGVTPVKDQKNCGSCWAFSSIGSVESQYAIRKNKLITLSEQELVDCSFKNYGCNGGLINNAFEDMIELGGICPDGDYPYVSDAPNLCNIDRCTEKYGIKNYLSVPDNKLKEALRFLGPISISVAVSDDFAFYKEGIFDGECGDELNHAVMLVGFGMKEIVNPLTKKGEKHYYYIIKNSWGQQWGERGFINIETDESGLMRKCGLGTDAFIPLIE
Protocol: (§1) In vitro antimalarial assay, antimalarial activity of the compounds was determined in vitro on chloroquine sensitive and resistant strains of plasmodium flaciparum as described earlier.

[2] = molecular target: T2, Cysteine proteinase falcipain 3 (Plasmodium falciparum (isolate 3D7), UniProt Q8IIL0); assay: In Vitro Inhibition Assay
T2 sequence (Q8IIL0 whole entry): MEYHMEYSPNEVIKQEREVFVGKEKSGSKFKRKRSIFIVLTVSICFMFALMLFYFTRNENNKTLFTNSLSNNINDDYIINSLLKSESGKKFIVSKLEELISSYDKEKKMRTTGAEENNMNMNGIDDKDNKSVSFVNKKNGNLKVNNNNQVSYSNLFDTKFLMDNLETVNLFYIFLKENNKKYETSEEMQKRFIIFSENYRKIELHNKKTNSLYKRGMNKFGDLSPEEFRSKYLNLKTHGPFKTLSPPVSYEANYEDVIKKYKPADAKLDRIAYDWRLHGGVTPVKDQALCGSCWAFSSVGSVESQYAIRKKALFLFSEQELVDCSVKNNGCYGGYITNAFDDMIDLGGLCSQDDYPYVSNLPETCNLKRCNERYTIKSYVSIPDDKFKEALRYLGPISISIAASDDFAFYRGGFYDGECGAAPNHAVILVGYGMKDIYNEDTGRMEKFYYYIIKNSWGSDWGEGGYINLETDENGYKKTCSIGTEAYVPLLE
Protocol: as §1

SMILES	IC50 [1]	IC50 [2]
O=C(C=Cc1nc(CCc2ccccc2)c(CCCO)s1)CSCCCc1ccccc1 [Trisubsituted thiazole, 14]	6.6 µM	29.4 µM
O=C(CCc1nc(CCc2ccccc2)c(CCCO)s1)CSCCCc1ccccc1 [Trisubsituted thiazole, 15]	> 12.5 µM	> 50 µM
O=CCCc1sc(CCC(=O)CSCCCc2ccccc2)nc1CCc1ccccc1 [Trisubsituted thiazole, 16]	39.1 µM	> 50 µM
NC(=O)CCc1sc(CCC(=O)CSCCCc2ccccc2)nc1CCc1ccccc1 [Trisubsituted thiazole, 17]	> 33 µM	> 50 µM
CC(=O)NCCCc1sc(CCC(=O)CSCCCc2ccccc2)nc1CCc1ccccc1 [Trisubsituted thiazole, 20]	> 33 µM	> 50 µM
NC(=O)CCc1sc(NC(=O)CSCCCc2ccccc2)nc1/C=C/c1ccccc1 [Trisubsituted thiazole, 23]	15.3 µM	–
O=C(CCc1nc(CO)c(CCc2ccccc2)s1)CSCCCc1ccccc1 [Trisubsituted thiazole, 29]	> 12.5 µM	> 50 µM
CC(=O)OCc1nc(CCC(=O)CSCCCc2ccccc2)sc1CCc1ccccc1 [Trisubsituted thiazole, 30]	> 33 µM	> 50 µM
